Laboratory results: patent US20210330611A1, “THERAPY FOR NEUROLOGICAL DISEASES/DISORDERS” (priority 2020, published 2021)
Structures can show the parent of a compound that is named as a salt. Where two headings read alike, the source gives them in different places.

Experiments:
MOG35-55 EAE = assay: Active MOG35-55 EAE, clinical scores; type: in vivo, mouse; details: prophylactic, 5 mg/kg i.p. daily from day 0, FIG. 14B
renal reperfusion injury = details: cited from earlier work
mouse BMDMs = assay: ROS production (DHE) in fibrin-stimulated mouse BMDMs; type: cell-based; details: fibrin 24 h, 5 μM inhibitor, FIG. 6b
Experimental: Bone marrow—derived macrophage cultures. […]. In brief, bone-marrow cells were isolated from tibia and femur of C57BL/6 mice, Ggt1^+/+ mice or Ggt1^dwg/dwg mice and cultured in RPMI-1640 medium supplemented with 10% FBS, 1% penicillin-streptomycin (Corning), and 10 ng/ml murine M-CSF (14-8983-80, Thermo Fisher Scientific). On days 6-7, adherent BMDMs were harvested by adding PBS with 5 mM EDTA to the plates and used for assays.
Human macrophage cultures. Human peripheral blood mononuclear cells (PBMCs) were purchased from AllCells, LLC (Alameda, Calif.). To differentiate PBMC into monocyte-derived macrophages, 2×10^6 PBMC/mL were plated in RPMI-1640 media supplemented with 10% FBS, 1% penicillin-streptomycin (Corning), and 50 ng/ml human M-CSF (300-25, Peprotech) in tissue-culture treated dishes (Corning). After 24 h, non-adherent cells were removed, and adherent cells were cultivated for 7-8 additional days at 37° C. in 5% CO2 to promote their full differentiation into macrophages. Oxidant detection with DHE. Intracellular concentrations of ROS were measured using dihydroethidium (DHE) as described (9). […] The DHE fluorescence was detected at an excitation/emission wavelength of 518 nm/605 nm using a SpectraMax M5 microplate reader (Molecular Devices) with SoftMax Pro 5.2 software (Phoenix Technologies Ltd.).

human macrophages = assay: ROS production (DHE) in fibrin-stimulated human macrophages; type: cell-based; details: fibrin 24 h, 5 μM inhibitor, FIG. 6b
Experimental: Human macrophage cultures. Human peripheral blood mononuclear cells (PBMCs) were purchased from AllCells, LLC (Alameda, Calif.). To differentiate PBMC into monocyte-derived macrophages, 2×10^6 PBMC/mL were plated in RPMI-1640 media supplemented with 10% FBS, 1% penicillin-streptomycin (Corning), and 50 ng/ml human M-CSF (300-25, Peprotech) in tissue-culture treated dishes (Corning). After 24 h, non-adherent cells were removed, and adherent cells were cultivated for 7-8 additional days at 37° C. in 5% CO2 to promote their full differentiation into macrophages. Oxidant detection with DHE. Intracellular concentrations of ROS were measured using dihydroethidium (DHE) as described (9). Cultured BMDMs or human macrophages were incubated in medium containing 5 μM DHE (Invitrogen) for 30 min Cells were plated on 96-well, black μ-clear-bottom microtiter plates (Greiner Bio-One) pre-coated with 25 μg/ml fibrin. For GGT inhibition, BMDMs or human macrophages were pre-incubated with 5 μM acivicin or GGsTop for 1 h, and the cells were plated on fibrin-coated 96-well plates as described above. PBS was used as vehicle control. Cells were then incubated for 24-48 h and fixed with 4% PFA for 10 min. The DHE fluorescence was detected at an excitation/emission wavelength of 518 nm/605 nm using a SpectraMax M5 microplate reader (Molecular Devices) with SoftMax Pro 5.2 software (Phoenix Technologies Ltd.).

intracellular GSH = type: cell-based, mouse
Experimental: Real-time imaging of glutathione. The real-time GSH dynamics in living BMDMs was determined with the fluorescent GSH probe, RealThiol RT-AM as described (37). Cells were plated on 2-well chamber slide (Nunc) pre-coated with 25 μg/ml fibrin. Cells were stimulated with fibrin with or without 5 μM acivicin or GGsTop. The GSH synthesis inhibitor, buthionine sulfoximine (BSO, Sigma-Aldrich) was used as positive control for reducing intracellular GSH levels at 100 μM. After 24 h incubation, cells were loaded with 1 μM RT-AM probe and were incubated for 5 min before imaging. The cells were kept at 37° C. during the entire experiment. […] For each independent experiment, laser power and detector settings were set using the control/untreated cells incubated with RT-AM alone as reference. All settings were kept constant throughout the experiment. […] The ratio calculated for each treatment was expressed as percentage from that of the untreated cells (control).

GGT = biological target: T1, GGT (Mus musculus, UniProt Q60928); assay: GGT activity assay in fibrin-stimulated BMDMs (enzymatic kit, ProteoGREEN-gGlu probe); type: cell-based; details: FIG. 6c, FIG. 13A, B
T1 construct: GGT activity in BMDMs left unstimulated or stimulated with fibrin after acivicin or vehicle control treatment; endogenous in cells; host or cells: mouse bone marrow-derived macrophages (BMDMs), fibrin-stimulated
T1 sequence (Q60928 380-568): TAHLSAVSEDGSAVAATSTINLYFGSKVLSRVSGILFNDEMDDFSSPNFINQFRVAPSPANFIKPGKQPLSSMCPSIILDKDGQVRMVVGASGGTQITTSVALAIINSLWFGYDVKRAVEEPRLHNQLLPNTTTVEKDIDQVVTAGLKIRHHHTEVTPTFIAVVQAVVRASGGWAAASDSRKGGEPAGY
T1 sequence (Q60928 1-379): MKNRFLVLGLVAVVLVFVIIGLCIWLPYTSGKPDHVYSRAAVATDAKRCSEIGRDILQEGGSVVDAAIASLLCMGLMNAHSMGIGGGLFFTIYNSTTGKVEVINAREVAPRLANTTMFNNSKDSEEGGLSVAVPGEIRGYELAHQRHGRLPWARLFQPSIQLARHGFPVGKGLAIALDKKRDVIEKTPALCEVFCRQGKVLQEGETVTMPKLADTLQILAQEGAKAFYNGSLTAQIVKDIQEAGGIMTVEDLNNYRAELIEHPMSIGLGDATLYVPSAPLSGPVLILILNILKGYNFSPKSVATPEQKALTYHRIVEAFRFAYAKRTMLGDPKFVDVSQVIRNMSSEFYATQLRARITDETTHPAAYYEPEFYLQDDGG
Experimental: GGT activity assay. GGT activity was measured using the MaxDiscovery gamma-Glutamyl Transferase (GGT) Enzymatic Assay Kit (Bioo Scientific) according to the manufacturer's protocol. […]. For in vivo GGT activity assay, spinal cord tissues from the onset of MOG35-55 EAE or LPS-injected substantia nigra area at 12 h were prepared. Tissues were homogenized in 0.1 M Tris-HCl and centrifuged at 13,000 g for 30 min at 4° C. The supernatant was collected and subsequently assessed for GGT activity. The absorbance at 405 nm was detected with a SpectraMax M5 microplate reader (Molecular Devices) with SoftMax Pro 5.2 software (Phoenix Technologies Ltd.). The GGT activity in IU/1 was calculated following the manufacturer's protocol by multiplying the average increase in absorbance at 405 nm over 10 min GGT activity was also measured using a fluorescent probe, ProteoGREEN-gGlu (Goryo Chemical, Hokkaido, Japan), according to the manufacturer's protocol. Cultured BMDMs were plated on 96-well, black μ-clear-bottom microtiter plates (Greiner Bio-One) pre-coated with 25 μg/ml fibrin. […] The fluorescence intensity (excitation/emission filter pairs of 488 nm/520 nm) was measured using a SpectraMax M5 microplate reader (Molecular Devices) with SoftMax Pro 5.2 software (Phoenix Technologies).

primary rat microglia [1] = details: rat
[2] = system: LPS-induced microglia activation; assay: Image-based assay of LPS-induced microglia activation (HTS and dose response); type: cell-based, rat; details: Rattus norvegicus, Microglia; for inhibition at 10 µM: primary microglia HTS, LPS stimulation, increased cell size (>800 μm^2) as marker of activation, read-out: LPS % inhibition
primary rat microglia [3] = assay: Cell toxicity (dead cells, size <150 μm2) in LPS assay; details: read-out: Cell Toxicity IC50 (uM) [LPS assay]; LPS assay
[4] = system: fibrin-induced microglia activation; assay: Image-based assay of fibrin-induced microglia activation (HTS and dose response); type: cell-based, rat; details: for IC50 / inhibition at 10 µM: Rattus norvegicus, Microglia; for inhibition at 10 µM: primary microglia HTS, fibrin stimulation, increased cell size (>800 μm^2) as marker of activation, read-out: Fibrin % inhibition
in vitro [5] = details: rat
primary rat microglia [6] = details: rat; remark: listed apart in the source
[7] = system: fibrin- and LPS-induced microglia activation; assay: cells; type: cell-based, rat; details: for inhibition at 10 µM: Rattus norvegicus, Microglia
in vitro [8] = details: rat, Cell Toxicity IC50 (uM) [cFib assay]
[9] = 48 h, Table 1, dose response 0.001-20 μM, triplicates, primary rat microglia, 48 h, read-out: LPS IC50
[10] = LPS-induced microglia activation, dose response, read-out: LPS IC50 (uM) (Suppl. Table 7)
[11] = Table 3, read-out: LPS IC50 (uM) (Suppl. Table 7)
[12] = dose response, LPS-induced microglia activation, read-out: LPS IC50
[13] = 48 h, Table 1, dose response 0.001-20 μM, triplicates, primary rat microglia, 48 h, read-out: Fibrin IC50
[14] = Table 3, read-out: Fibrin IC50 (uM) (Suppl. Table 7)
[15] = dose response, fibrin-induced microglia activation, read-out: Fibrin IC50
[16] = fibrin-induced microglia activation, dose response, read-out: Fibrin IC50 (uM) (Suppl. Table 7)
[17] = HTS of 1907 compounds, quadrant by fibrin and LPS inhibition
[18] = Table 3, read-out: Cherry-picked Hit (Suppl. Table 7)
[19] = HTS hit classification, read-out: Hit
[20] = quadrant by fibrin and LPS inhibition in HTS of 1907 compounds
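For Fibrin % cell toxicity in this document: share of dead cells sized under 150 µm2 at 10 µM in fibrin-stimulated microglia HTS.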

| SMILES | LPS % cell toxicity (primary rat microglia [1]) [%] | IC50 [2, 9] [µM] | inhibition at 10 µM ([2]; 48 h) [%] | IC50 [2, 10] [µM] | IC50 [2, 11] [µM] | IC50 [2, 12] [µM] | IC50 (primary rat microglia [3]) [µM] | IC50 [4, 13] [µM] | IC50 [4, 14] [µM] | IC50 [4, 15] [µM] | IC50 [4, 16] [µM] | inhibition at 10 µM [4] [%] | IC50 (in vitro [5]) [µM] | Fibrin % cell toxicity (primary rat microglia [6]) [%] | Quadrant (FIG. 5b) [7, 17] | inhibition at 10 µM [7, 18] [%] | inhibition at 10 µM [7, 19] [%] | Quadrant (FIG. 5b) ([7]; Table 1, screen at 10 μM) | Quadrant (FIG. 5b) ([7]; Table 3, screen at 10 μM) | Quadrant (FIG. 5b) [7, 20] | further results |
| --- | --- | --- | --- | --- | --- | --- | --- | --- | --- | --- | --- | --- | --- | --- | --- | --- | --- | --- | --- | --- | --- |
| COP(=O)(CCC(N)C(=O)O)Oc1cccc(CC(=O)O)c1 (stereo not drawn) [GGsTop] | – | – | – | – | – | – | – | – | – | – | – | – | – | – | – | – | – | – | – | – | neurologic signs (MOG35-55 EAE): reduced; oxidative stress markers (renal reperfusion injury): reduced; renal reperfusion injury (renal reperfusion injury): protected; ROS generation (DHE) in mouse macrophages (mouse BMDMs): inhibited; ROS generation (DHE) in human macrophages (human macrophages): inhibited; fibrin-induced degradation of glutathione (RealThiol F405/F488) (intracellular GSH): inhibited; fibrin-induced GGT activity in BMDMs (GGT): inhibited |
| C[C@H]1C[C@@H]2[C@H]([C@@H](O)C[C@@]3(C)[C@H]2CC[C@]3(O)C(=O)CO)[C@@]2(C)C=CC(=O)C=C12 [Methylprednisolone, reference compound] | 2 | 0.02 | 86 | 0.02 | 0.02 | 0.02 | > 20 | < 0.001 | < 0.001 | < 0.001 | < 0.001 | 110 | > 20 | 3 | Q2 | > 50 | > 50 | Q2 | Q2 | Q2 | IC50 ([2]; Table 7, read-out: LPS_IC50): 0.002 µM; IC50 ([4]; Table 7, read-out: fib_IC50): 0.003 µM; Quadrant (FIG. 5b) ([7]; Table 2, screen at 10 μM): Q2; IC50 (in vitro [8]; Table 3): > 20 µM; IC50 (in vitro [8]; cFib assay): > 20 µM |
| O=C(NC(Cc1cc(=O)[nH]c2ccccc12)C(=O)O)c1ccc(Cl)cc1 (stereo not drawn) [Rebamipide, reference compound] | 2 | 11 | 72 | 11 | 11 | 11 | > 20 | 2 | 2 | 2 | 2 | 65 | > 20 | 1 | Q2 | > 50 | > 50 | Q2 | Q2 | Q2 | Fibrin Selectivity [4]: 6; Fibrin Selectivity (LOG10) [4]: 0.80; IC50 (in vitro [8]; Table 3): > 20 µM; IC50 (in vitro [8]; cFib assay): > 20 µM |
| CC[C@]1(O)C[C@@H]2CN(CCc3c([nH]c4ccccc34)[C@@](C(=O)OC)(c3cc4c(cc3OC)N(C)[C@H]3[C@@](O)(C(=O)OC)[C@H](OC(C)=O)[C@]5(CC)C=CCN6CC[C@]43[C@@H]65)C2)C1 [Vinblastine sulfate, reference compound] | 8 | 0.2 | 108 | 0.2 | 0.2 | 0.2 | > 20 | 0.02 | 0.02 | 0.02 | 0.02 | 106 | > 20 | 2 | Q2 | > 50 | > 50 | Q2 | Q2 | Q2 | IC50 ([2]; Table 7, read-out: LPS_IC50): 0.628 µM; Fibrin Selectivity [4]: 11; Fibrin Selectivity (LOG10) [4]: 1.05; IC50 ([4]; Table 7, read-out: fib_IC50): 1.39 µM; Quadrant (FIG. 5b) ([7]; Table 2, screen at 10 μM): Q2; Activity ([7]; Table 7, fib = fibrin, LPS, tox = toxicity): fib/LPS; IC50 (in vitro [8]; Table 3): > 20 µM; IC50 (in vitro [8]; cFib assay): > 20 µM |
| O=P(O)(O)C(O)(Cn1ccnc1)P(=O)(O)O [Zoledronic acid, reference compound] | 1 | 8 | 49 | 8 | 8 | 8 | > 20 | 2 | 2 | 2 | 2 | 83 | > 20 | 2 | Q3 | > 50 | > 50 | Q3 | Q3 | Q3 | Fibrin Selectivity [4]: 4; Fibrin Selectivity (LOG10) [4]: 0.55; IC50 (in vitro [8]; Table 3): > 20 µM; IC50 (in vitro [8]; cFib assay): > 20 µM |
